In PubChem BioAssay (NCI) one finds TGI data, which are given here for seven compounds.

The TGI is the concentration giving total growth inhibition. Higher therefore signals less potent growth arrest.

Structures are written as SMILES.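 Method: 48-hour compound exposure of cells in 96-well plates, five concentrations, linear interpolation of endpoints. At the TGI there is no net growth.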

Test systems include OVCAR-4 ovarian; NCI-H460 lung; SK-MEL-5 melanoma; HCC-2998 colon; K-562 leukemia; SF-539 CNS; SF-268 CNS; SF-295 CNS; A549 NSCLC; PC-3 prostate; HL-60(TB) leukemia; NCI/ADR-RES ovarian; COLO 205 colon; SK-OV-3 ovarian; OVCAR-8 ovarian; SNB-75 CNS; CAKI-1 renal; UACC-257 melanoma; EKVX NSCLC; A498 renal.
What all share (assay): DTP human tumour cell line panel, 48 h

`CCOC(=O)c1c(-c2ccccc2)nc2c(OC)nccn12`: the TGI in the test on OVCAR-4 ovarian, in the test with NCI-H460 lung, in the test on SK-MEL-5 melanoma, in the test with HCC-2998 colon, in the test with K-562 leukemia and with SF-539 CNS was more than 100 µM in each case. The TGI in the test with SF-268 CNS, in the test on SF-295 CNS, in the test with A549 NSCLC, in the test on PC-3 prostate, in the test with HL-60(TB) leukemia and with NCI/ADR-RES ovarian was more than 100 µM throughout. The total growth inhibition concentration (TGI) in the test on COLO 205 colon, with SK-OV-3 ovarian, in the test on OVCAR-8 ovarian, in the test on SNB-75 CNS, in the test on CAKI-1 renal and in the test on UACC-257 melanoma was more than 100 µM in each case. In the test with EKVX NSCLC, this compound came in with a TGI of more than 100 µM.

On to `COc1cc([C@H]2CC(=O)C[C@@H](c3cc(OC)c(OC)c(OC)c3)C23C(=O)c2ccccc2C3=O)cc(OC)c1OC`, for which the TGI in the test on OVCAR-4 ovarian, in the test on NCI-H460 lung, in the test on SK-MEL-5 melanoma, in the test on HCC-2998 colon, with K-562 leukemia and in the test on SF-539 CNS was more than 100 µM throughout. Besides, the TGI in the test on SF-268 CNS, in the test on SF-295 CNS, in the test with A549 NSCLC, in the test on PC-3 prostate, in the test with HL-60(TB) leukemia and in the test on NCI/ADR-RES ovarian was more than 100 µM throughout. For the same compound, the TGI with COLO 205 colon, with SK-OV-3 ovarian, in the test on OVCAR-8 ovarian, in the test with SNB-75 CNS, with CAKI-1 renal and in the test on UACC-257 melanoma was more than 100 µM each time. In the test on EKVX NSCLC, this compound returned a total growth inhibition concentration (TGI) of more than 100 µM.

Take `CCCC(=O)NC(C(=O)OCC)(N1CCOCC1)C(F)(F)F` (stereo not drawn): the concentration for total growth inhibition (TGI) with OVCAR-4 ovarian, in the test on SK-MEL-5 melanoma, in the test on HCC-2998 colon, in the test on K-562 leukemia, in the test on SF-539 CNS and with SF-268 CNS was more than 100 µM each time. Besides, the TGI in the test on SF-295 CNS, with A549 NSCLC, in the test on PC-3 prostate, in the test on HL-60(TB) leukemia, in the test with NCI/ADR-RES ovarian and in the test on COLO 205 colon was more than 100 µM throughout. Moreover, the total growth inhibition concentration (TGI) in the test on SK-OV-3 ovarian, in the test on OVCAR-8 ovarian, in the test on SNB-75 CNS, in the test with CAKI-1 renal, in the test on UACC-257 melanoma and with EKVX NSCLC was more than 100 µM throughout.

On to `CCCNC(=O)Cn1c(C)cc2ccccc21`, for which the TGI in the test with OVCAR-4 ovarian, with SK-MEL-5 melanoma, with HCC-2998 colon, in the test with K-562 leukemia, with SF-539 CNS and in the test on SF-268 CNS was more than 100 µM in each case. Further, the concentration for total growth inhibition (TGI) with A549 NSCLC, in the test with PC-3 prostate, in the test on HL-60(TB) leukemia, in the test with NCI/ADR-RES ovarian, in the test on COLO 205 colon and with SK-OV-3 ovarian was more than 100 µM in each case. For the same compound, the total growth inhibition concentration (TGI) in the test with OVCAR-8 ovarian, in the test with SNB-75 CNS, in the test with CAKI-1 renal, in the test with UACC-257 melanoma and in the test on EKVX NSCLC was more than 100 µM throughout.

For `CC1(C)CCCCCCC2CC2CCCCCC(C)(C)C1=O` (stereo not drawn), the total growth inhibition concentration (TGI) with OVCAR-4 ovarian is more than 100 µM; in the test with NCI-H460 lung it was more than 100 µM; in the test on SK-MEL-5 melanoma, more than 100 µM; with K-562 leukemia it was 98.1 µM; in the test with SF-539 CNS it was more than 100 µM; with SF-268 CNS it was more than 100 µM. Besides, the TGI in the test on SF-295 CNS is more than 100 µM; in the test with A549 NSCLC, more than 100 µM; in the test with PC-3 prostate, more than 100 µM; in the test with HL-60(TB) leukemia, 32.7 µM; in the test with NCI/ADR-RES ovarian, more than 100 µM; with COLO 205 colon it was more than 100 µM. Further, the TGI in the test with A498 renal, with SK-OV-3 ovarian, with OVCAR-8 ovarian, in the test on SNB-75 CNS, in the test on CAKI-1 renal and in the test on UACC-257 melanoma was more than 100 µM in each case. This compound also yielded a TGI in the test with EKVX NSCLC of more than 100 µM.

Regarding `CN(C)CCNC1=CC(=O)c2nc3ccccc3c3ccnc1c23`, the TGI in the test with OVCAR-4 ovarian was 16.6 µM; in the test with NCI-H460 lung, 9.91 µM; in the test on HCC-2998 colon it was 16.8 µM; with K-562 leukemia, 17.7 µM; with SF-539 CNS, 15.5 µM; with SF-268 CNS it was 21.5 µM. In addition, the total growth inhibition concentration (TGI) in the test on SF-295 CNS came out at 19.8 µM; with A549 NSCLC it was 26.3 µM; with PC-3 prostate, 17.2 µM; in the test on HL-60(TB) leukemia, 16.8 µM; in the test with NCI/ADR-RES ovarian, 28.5 µM; with COLO 205 colon, 9.21 µM. Besides, the total growth inhibition concentration (TGI) was 29.4 µM in the test with SK-OV-3 ovarian; 37.5 µM with OVCAR-8 ovarian; 27.8 µM with SNB-75 CNS; 18.9 µM in the test on CAKI-1 renal; 22.6 µM in the test on UACC-257 melanoma; 14.3 µM in the test with EKVX NSCLC.

Consider `COc1cc([C@@H]2c3cc4c(cc3[C@@H](OC3OC5COC(C)OC5C(OC(=O)CN5CCN(C)CC5)C3OC(=O)CN3CCN(C)CC3)C3COC(=O)[C@@H]32)OCO4)cc(OC)c1OC(=O)CN1CCN(C)CC1` (stereo partly drawn), for which the TGI was more than 100 µM with OVCAR-4 ovarian; more than 100 µM in the test on NCI-H460 lung; more than 100 µM with SK-MEL-5 melanoma; more than 100 µM in the test on HCC-2998 colon; more than 100 µM with K-562 leukemia; 73.4 µM in the test on SF-539 CNS. Also, the TGI in the test on SF-268 CNS was more than 100 µM; with SF-295 CNS it was more than 100 µM; with PC-3 prostate, more than 100 µM; in the test on HL-60(TB) leukemia, 42.6 µM; in the test on NCI/ADR-RES ovarian it was more than 100 µM; with COLO 205 colon, more than 100 µM. Further, the concentration for total growth inhibition (TGI) with SK-OV-3 ovarian was more than 100 µM; with OVCAR-8 ovarian, more than 100 µM; in the test with SNB-75 CNS, 84.9 µM; in the test on CAKI-1 renal, more than 100 µM; with UACC-257 melanoma, more than 100 µM; with EKVX NSCLC it was more than 100 µM.
